# Assays:
# Jurkat [1] = test: confluency relative to DMSO, 18 h (ratio); higher = more viable
# In short: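 Jurkat cells or primary CD4+/CD8+ T cells, either naive or activated for 48 h with CD3/CD28 Dynabeads, were exposed to compound from 1 nM to 10 µM in log10 steps for 18 h at 37 °C and 5% CO2. Afterwards, 100 µl of each suspension was moved into 96-well plates containing IncuCyte Cytotox Dye and alamarBlue. Phase-contrast images were taken at ×10, five per well, every hour for 3 h. Confluency was derived from these images with the IncuCyte Basic Analyzer, and values are expressed relative to the mean of the control wells.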
# Jurkat [2] = test: metabolic activity relative to DMSO, 18 h (ratio); higher = more viable
# In short: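 Metabolic activity values are normalised to the average of vehicle control wells. They come from Jurkat or primary CD4+/CD8+ T cells (naive, or activated 48 h with CD3/CD28 Dynabeads) treated for 18 h at 37 °C, 5% CO2 with compound over 1 nM–10 µM in log10 steps. Then 100 µl of each suspension was mixed in 96-well plates with alamarBlue (10% v/v final), and fluorescence at 544 nm excitation and 584 nm emission was recorded on a FluoStar Omega 3.5 h later.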
# Jurkat [3] = test: cytotoxicity relative to DMSO, 18 h (ratio); higher = less cell death (drugs called cytotoxic fall below 1)
# In short: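 Cytotoxicity was measured by IncuCyte fluorescence imaging after confluency correction and normalisation to mean control values. Cells (Jurkat, or primary CD4+/CD8+ T cells that were naive or pre-activated 48 h with CD3/CD28 Dynabeads) received compound at 1 nM–10 µM in log10 steps for 18 h at 37 °C, 5% CO2. Imaging used ×10 magnification, five images per well, taken hourly over 3 h in 96-well plates with 250 nM final IncuCyte Cytotox Dye in 100 µl of suspension.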
SMILES,confluency (Jurkat [1]; 1 nM),confluency (Jurkat [1]; 10 nM),confluency (Jurkat [1]; 100 nM),confluency (Jurkat [1]; 1000 nM),confluency (Jurkat [1]; 10000 nM),metabolic activity (Jurkat [2]; 1 nM),metabolic activity (Jurkat [2]; 10 nM),metabolic activity (Jurkat [2]; 100 nM),metabolic activity (Jurkat [2]; 1000 nM),metabolic activity (Jurkat [2]; 10000 nM),cytotoxicity (Jurkat [3]; 1 nM),cytotoxicity (Jurkat [3]; 10 nM),cytotoxicity (Jurkat [3]; 100 nM),cytotoxicity (Jurkat [3]; 1000 nM),cytotoxicity (Jurkat [3]; 10000 nM)
CCNC(=O)Nc1ccc(-c2nc3c(c(N4CCOCC4C)n2)CCN(C2COC2)C3)cc1 (stereo not given) [GDC-0349],0.992,0.981,0.955,0.932,0.873,0.925,0.919,0.886,0.841,0.798,0.991,0.972,0.947,0.887,0.78
COC1=C2CC(C)CC(OC)C(O)C(C)C=C(C)C(OC(N)=O)C(OC)C=CC=C(C)C(=O)NC(=CC1=O)C2=O (stereo not given) [Geldanamycin],0.963,1.02,0.786,0.971,0.975,0.985,0.95,0.767,0.567,0.7,0.946,0.982,0.745,0.815,0.798
Nc1ccn(C2OC(CO)C(O)C2(F)F)c(=O)n1 (stereo not given) [Gemcitabine],0.916,0.993,1.04,0.732,0.69,1,1.07,0.61,0.712,0.724,0.927,1.01,0.921,0.651,0.602
CCN(CC)Cc1ccc2cc(COC(=O)Nc3ccc(C(=O)NO)cc3)ccc2c1 [Givinostat],1.05,0.98,1.05,1.18,1.2,0.902,0.981,0.969,0.845,0.762,1.15,1.01,1.06,1.03,1.04
COc1ccc(S(=O)(=O)N(C(C)=O)c2ccccc2C=Cc2cc[n+]([O-])cc2)cc1 [HMN-214],0.983,0.99,0.993,0.979,0.694,1.11,0.973,0.813,0.779,0.503,1.11,0.94,0.954,0.982,0.602
NC1CCC(NC2CC2c2ccccc2)CC1 (stereo not given) [Iadademstat],1.01,0.967,1.02,1.03,1.05,0.93,0.857,0.737,1.09,0.95,0.988,0.933,0.928,1.14,1.15
O=C1CCC(N2Cc3c(OCc4ccc(CN5CCOCC5)cc4)cccc3C2=O)C(=O)N1 (stereo not given) [Iberdomide],0.898,0.805,0.811,0.8,0.823,0.987,0.949,1.02,1.11,1.21,0.885,0.749,0.877,0.796,0.865
CCC(Nc1ncnc2nc[nH]c12)c1nc2cccc(F)c2c(=O)n1-c1ccccc1 (stereo not given) [Idelalisib],1.07,1.09,1.1,0.986,1.07,0.825,0.959,0.958,0.983,0.993,1.05,1.08,1.09,0.927,1
CC(C)CC(NC(=O)CNC(=O)c1cc(Cl)ccc1Cl)B(O)O (stereo not given) [Ixazomib],0.945,0.97,1.12,0.922,1.09,0.928,1.04,0.924,0.382,0.121,0.958,1,1.03,0.682,0.631
Cc1cc(C)cc(C(=O)NOCCCCCC(=O)NO)c1 [LMK235],0.982,1.03,1.06,1.16,1.3,0.997,0.979,1.04,0.905,0.694,0.947,0.991,1.08,1.04,1.26
Nc1cccc2c1CN(C1CCC(=O)NC1=O)C2=O (stereo not given) [Lenalidomide],0.996,0.912,0.993,0.96,0.93,0.931,0.895,0.809,0.905,0.96,0.945,0.905,0.96,0.912,0.892
COc1cc(C)[nH]c(=O)c1CNC(=O)c1c(C)n(C(C)C2CCN(CC(F)(F)F)CC2)c2ccccc12 (stereo not given) [Lirametostat],1.01,1.03,1.02,0.984,0.929,1.01,1.02,1.01,1.02,0.856,1,1,1.03,0.972,0.892
CC(C)CC(C=O)NC(=O)C(CC(C)C)NC(=O)C(CC(C)C)NC(=O)OCc1ccccc1 (stereo not given) [MG-132],1.01,0.99,1.02,0.605,0.69,0.799,0.84,0.938,0.359,0.11,0.953,0.939,0.989,0.471,0.461
O=C(O)C1(Cc2cccc(Nc3nccs3)n2)CCC(Oc2cccc(Cl)c2F)CC1 (stereo not given) [MK-5108],1.01,1.02,0.89,0.865,0.868,1.02,1.05,0.922,0.763,0.756,0.966,1.05,0.922,0.881,0.932
O=C(O)c1ccc(Nc2ncc3c(n2)-c2ccc(Cl)cc2C(c2c(F)cccc2F)=NC3)cc1 [MLN-8054],0.953,1.06,1.03,0.879,0.791,0.971,0.993,0.955,0.913,0.558,0.913,1.02,0.967,0.812,0.623
CN(Cc1cnc2nc(N)nc(N)c2n1)c1ccc(C(=O)NC(CCC(=O)O)C(=O)O)cc1 (stereo not given) [Methotrexate],0.943,0.828,0.619,0.576,0.603,1.12,1.08,1,0.865,0.746,1.05,0.897,0.666,0.571,0.585
CNC(=O)c1nn(C)c2c1C(C)(C)Cc1cnc(Nc3ccc(N4CCN(C)CC4)cc3)nc1-2 [Milciclib],1.01,0.985,1.01,0.969,1.01,1.05,0.965,0.953,0.684,0.809,0.986,0.958,0.956,0.794,0.897
Nc1ccccc1NC(=O)c1ccc(CNc2nccc(-c3cccnc3)n2)cc1 [Mocetinostat],1,1.02,1,0.76,0.886,0.892,0.841,0.822,0.747,0.3,0.997,1.01,0.975,0.726,0.636
CCNC(=O)CC1N=C(c2ccc(Cl)cc2)c2cc(OC)ccc2-n2c(C)nnc21 (stereo not given) [Molibresib],1.02,1.03,1.03,1,0.879,0.916,1.06,1.18,0.878,0.887,0.992,1,1.07,0.955,0.848
O=C1C=CC(=O)C2=C1C1c3ccccc3C2c2ccccc21 [NFAT activation inhibitor III],1,0.877,0.804,0.97,0.864,1.04,1.04,1.12,1.01,0.834,0.945,0.784,0.732,1.04,0.839
CCCCN(Cc1ccc(C(=O)NO)cc1)C(=O)Nc1ccccc1 [Nexturastat A],0.989,0.978,0.98,0.935,0.989,1.05,1.15,1.1,1.02,0.66,1.05,1.15,1.07,0.955,0.92
COC(=O)c1ccc2c(C(=Nc3ccc(N(C)C(=O)CN4CCN(C)CC4)cc3)c3ccccc3)c(O)[nH]c2c1 [Nintedanib],0.986,0.955,0.981,0.832,0.566,1.01,0.93,0.949,0.919,0.827,0.929,0.948,0.988,0.81,0.537
NC(=O)c1cccc2cn(-c3ccc(C4CCCNC4)cc3)nc12 (stereo not given) [Niraparib],1.07,1.04,1.06,1.05,0.915,0.947,0.907,1.17,0.992,1.01,1.11,1.01,1.1,1.03,0.94
COC(=O)Nc1nc2ccc(C(=O)c3cccs3)cc2[nH]1 [Nocodazole],1.02,1.06,1.14,0.907,0.731,0.881,1.08,0.621,0.589,0.554,1.03,1.08,1.02,0.807,0.59
